Test results reported in patent publication US20040097591A1, “Use of selective progesterone receptor modulators for the treatment of androgen deficiency” (priority 2002, published 2004).

Columns and labels:
progesterone receptor = target: T1, progesterone receptor (Oryctolagus cuniculus, UniProt P06186); conditions: rabbit model, scale of 0-4; agonistic/antagonistic effect at the progesterone receptor; cited from earlier work
T1 construct: effects of compounds at the progesterone receptor using a rabbit model; from tissue; host or cells: living rabbit (whole-animal model)
T1 sequence (P06186 1-930): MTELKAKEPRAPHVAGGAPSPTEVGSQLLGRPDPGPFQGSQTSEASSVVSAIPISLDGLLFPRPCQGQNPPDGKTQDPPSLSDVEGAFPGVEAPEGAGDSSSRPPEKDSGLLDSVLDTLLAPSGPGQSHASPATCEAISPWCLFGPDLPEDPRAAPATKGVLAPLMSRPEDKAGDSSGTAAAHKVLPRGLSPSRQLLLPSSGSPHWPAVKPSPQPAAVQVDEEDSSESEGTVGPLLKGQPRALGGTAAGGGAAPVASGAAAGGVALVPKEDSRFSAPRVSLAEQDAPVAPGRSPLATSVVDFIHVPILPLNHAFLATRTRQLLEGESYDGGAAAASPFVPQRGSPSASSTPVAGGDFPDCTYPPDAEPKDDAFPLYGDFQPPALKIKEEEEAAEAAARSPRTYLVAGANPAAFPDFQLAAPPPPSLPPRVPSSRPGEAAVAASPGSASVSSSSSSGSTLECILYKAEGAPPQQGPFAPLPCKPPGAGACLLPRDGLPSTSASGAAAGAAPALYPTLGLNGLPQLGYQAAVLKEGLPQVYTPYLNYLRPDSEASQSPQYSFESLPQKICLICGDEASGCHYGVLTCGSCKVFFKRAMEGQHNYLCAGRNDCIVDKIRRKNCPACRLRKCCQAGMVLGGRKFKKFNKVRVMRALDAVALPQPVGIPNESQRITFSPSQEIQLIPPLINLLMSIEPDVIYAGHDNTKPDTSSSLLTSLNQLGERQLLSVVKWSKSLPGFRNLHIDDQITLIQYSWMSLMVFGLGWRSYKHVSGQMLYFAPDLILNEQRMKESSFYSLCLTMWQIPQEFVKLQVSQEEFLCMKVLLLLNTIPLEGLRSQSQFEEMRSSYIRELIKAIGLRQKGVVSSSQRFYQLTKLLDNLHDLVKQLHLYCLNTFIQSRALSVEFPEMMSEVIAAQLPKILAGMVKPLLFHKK

testosterone levels = assay: Phase II study of J867: total testosterone levels over 12 weeks; type: in vivo, female subjects; conditions: for mean testosterone concentration increase over the treatment period: 12 week treatment, female subjects aged 18-49
Method: (§1) The effect of SPRMs on testosterone levels and SHBG levels was studied using various doses of J867 over three months. The study was a phase II, multi-center, randomized, double blind, parallel group study of J867 at doses of 5 mg, 10 mg, and 25 mg once a day (QD)compared to placebo. Approximately 120 female subjects between the ages of 18 and 49 were enrolled in the study and randomly assigned to one of the four dosing groups above. During the 12 week study, testosterone and SHBG were measured at screening visits during weeks 2, 4, 8, and 12 of the study.
FIG. 1 is a graph showing total testosterone levels as a function of time during the study. […] Testosterone concentrations were relatively constant for the group receiving placebo. […] Over the treatment period, the mean testosterone concentrations for the 5 mg QD group increased approximately 7-15 ng/dL; the mean increase for the 10 mg QD group was approximately 15-21 ng/dL; and the mean concentrations observed following treatment with 25 mg QD increased approximately 16-25 ng/dL.

SHBG levels = assay: Phase II study of J867: SHBG levels over 12 weeks; type: in vivo, female subjects
Method: as §1
SHBG levels were also measured at weeks 2, 4, 8, and 12 of the study.

SMILES	McPhail score (progesterone receptor)	mean testosterone concentration increase over the treatment period (testosterone levels; 5 mg QD) [ng/dL]	mean testosterone concentration increase over the treatment period (testosterone levels; 10 mg QD) [ng/dL]	mean testosterone concentration increase over the treatment period (testosterone levels; 25 mg QD) [ng/dL]	total testosterone levels (FIG. 1) (testosterone levels; all doses (5, 10, 25 mg QD))	visit with largest mean increase of testosterone from baseline (testosterone levels; all three dose groups (5, 10, 25 mg QD))	testosterone concentrations at the end of the study (testosterone levels; all three dose groups, week 12)	mean level of SHBG during treatment (SHBG levels; 5 mg QD)	mean level of SHBG during treatment (SHBG levels; 10 mg QD)	mean level of SHBG during treatment (SHBG levels; 25 mg QD)	SHBG during the treatment period of three months (FIG. 2) (SHBG levels; weeks 2, 4, 8, 12, doses not separated)
CC#C[C@]1(O)CC[C@H]2[C@@H]3CCC4=CC(=O)CCC4=C3[C@@H](c3ccc(N(C)C)cc3)C[C@@]21C [RU486, mifepristone]	less than 0.5										
CC(=O)[C@H]1CC[C@H]2[C@@H]3CCC4=CC(=O)CC[C@]4(C)[C@H]3CC[C@]12C [progesterone]	4										
COC[C@]1(OC)CC[C@H]2[C@@H]3CCC4=CC(=O)CCC4=C3[C@@H](c3ccc(/C=N/O)cc3)C[C@@]21C [J867, [4-[17β-Methoxy-17α-(methoxymethyl)-3-oxoestra-4,9-dien-11β-yl]benzaldehyd-(1E)-oxim]]		7 to 15	15 to 21	16 to 25	testosterone levels increased with all doses	week 2 visit	still elevated above baseline	remained relatively constant	decreased from baseline	decreased from baseline	a decrease in SHBG
